Experimental data from patent publication US20120077854A1, “COMPOSITIONS AND METHODS FOR MODULATING RETINOL BINDING TO RETINOL BINDING PROTEIN 4 (RBP4)” (priority 2009, published 2012).

Target: RBP4 (Homo sapiens, UniProt P02753)
Assay: HTRF competition assay: displacement of Cy5-labeled retinol from RBP4
Assay type: binding
Settings: 10 nM biotin-labeled RBP4, streptavidin-Europium cryptate 1 nM, room temperature 30 min
Description: To determine the binding affinity of test compounds for RBP4, a homogeneous time resolved fluorescence (HTRF) assay was developed. The assay was a competition experiment measuring the interaction of RBP4 with the known RBP4 ligand retinol. Cy5-labeled retinol was incubated with 10 nM biotin-labeled RBP4 protein and streptavidin-Europium cryptate (1 nM). Test or control compounds were added to the reaction mixture and incubated at room temperature for 30 min. The HTRF signal was determined by monitoring the emission at 665 nm and […]. The ratio between the 665 nM signal and the […] signal was used to determine the binding of Cy5-retinol to RBP4. The ability of test or control compounds to displace Cy5-retinol from RBP4 was used to determine their potency for RBP4. […]

Structure (SMILES) | IC50 [nM]
COC(=O)Cc1csc(-c2cc(C(F)(F)F)cc(C(F)(F)F)c2)n1 [Example 1, Methyl 2-(2-(3,5-bis(trifluoromethyl)phenyl)thiazol-4-yl)acetate] | 2430
O=C(O)Cc1csc(-c2cc(C(F)(F)F)cc(C(F)(F)F)c2)n1 [Example 2, 2-(2-(3,5-Bis(trifluoromethyl)phenyl)thiazol-4-yl)acetic acid] | 85
COC(=O)Cc1nc(-c2cc(C(F)(F)F)cc(C(F)(F)F)c2)no1 [Example 3, Methyl 2-(3-(3,5-bis(trifluoromethyl)phenyl)-1,2,4-oxadiazol-5-yl)acetate] | 3440
COC(=O)Cc1coc(-c2cc(C(F)(F)F)cc(C(F)(F)F)c2)n1 [Example 4, Methyl 2-(2-(3,5-bis(trifluoromethyl)phenyl)oxazol-4-yl)acetate] | 2850
COC(=O)Cc1nc(-c2cc(C(F)(F)F)cc(C(F)(F)F)c2)co1 [Example 5, Methyl 2-(4-(3,5-bis(trifluoromethyl)phenyl)oxazol-2-yl)acetate] | 924
O=C(O)Cc1coc(-c2cc(C(F)(F)F)cc(C(F)(F)F)c2)n1 [Example 6, 2-(2-(3,5-Bis(trifluoromethyl)phenyl)oxazol-4-yl) acetic acid] | 93
O=C(O)Cc1nc(-c2cc(C(F)(F)F)cc(C(F)(F)F)c2)co1 [Example 7, 2-(4-(3,5-Bis(trifluoromethyl)phenyl)oxazol-2-yl)acetic acid] | 31
O=C(O)Cc1csc(-c2cc(Cl)cc(C(F)(F)F)c2)n1 [Example 8, 2-(2-(3-Chloro-5-(trifluoromethyl)phenyl)thiazol-4-yl)acetic acid] | 88
Cc1sc(CC(=O)O)nc1-c1cc(C(F)(F)F)cc(C(F)(F)F)c1 [Example 9, 2-(4-(3,5-Bis(trifluoromethyl)phenyl)-5-methylthiazol-2-yl)acetic acid] | 232
O=C(O)Cc1csc(-c2ccc(Cl)c(C(F)(F)F)c2)n1 [Example 10, 2-(2-(4-Chloro-3-(trifluoromethyl)phenyl)thiazol-4-yl)acetic acid] | 63
Cc1oc(CC(=O)O)nc1-c1cc(C(F)(F)F)cc(C(F)(F)F)c1 [Example 11, 2-(4-(3,5-Bis(trifluoromethyl)phenyl)-5-methyloxazol-2-yl)acetic acid] | 1590
O=C(O)Cc1nc(-c2cc(F)cc(C(F)(F)F)c2)co1 [Example 12, 2-(4-(3-Fluoro-5-(trifluoromethyl)phenyl)oxazol-2-yl)acetic acid] | 73
O=C(O)Cc1nc(-c2cc(F)cc(C(F)(F)F)c2)cs1 [Example 13, 2-(4-(3-Fluoro-5-(trifluoromethyl)phenyl)thiazol-2-yl)acetic acid] | 91
COc1cc(-c2nc(CC(=O)O)cs2)cc(C(F)(F)F)c1 [Example 14, 2-(2-(3-Methoxy-5-(trifluoromethyl)phenyl)thiazol-4-yl)acetic acid] | 88
COc1cc(-c2nc(CC(=O)O)co2)cc(C(F)(F)F)c1 [Example 15, 2-(2-(3-Methoxy-5-(trifluoromethyl)phenyl)oxazol-4-yl)acetic acid] | 248

More lines, now with the values ahead:

IC50 [nM] | Structure (SMILES)
141 | O=C(O)C(O)c1csc(-c2cc(C(F)(F)F)cc(C(F)(F)F)c2)n1 (stereo not drawn) [Example 16, 2-(2-(3,5-Bis(trifluoromethyl)phenyl)thiazol-4-yl)-2-hydroxyacetic acid]
86 | Cc1ccc(-c2nc(CC(=O)O)cs2)cc1C(F)(F)F [Example 17, 2-(2-(4-Methyl-3-(trifluoromethyl)phenyl)thiazol-4-yl)acetic acid]
440 | O=C(O)Cc1csc(-c2ccc(F)c(C(F)(F)F)c2)n1 [Example 18, 2-(2-(4-Fluoro-3-(trifluoromethyl)phenyl)thiazol-4-yl)acetic acid]
658 | O=C(O)Cc1coc(-c2cc(F)cc(C(F)(F)F)c2)n1 [Example 19, 2-(2-(3-Fluoro-5-(trifluoromethyl)phenyl)oxazol-4-yl)acetic acid]
168 | O=C(O)Cc1csc(-c2cc(F)cc(C(F)(F)F)c2)n1 [Example 20, 2-(2-(3-Fluoro-5-(trifluoromethyl)phenyl)thiazol-4-yl)acetic acid]
1050 | O=C(O)Cc1csc(-c2cc(C(F)(F)F)ccc2Cl)n1 [Example 21, 2-(2-(2-Chloro-5-(trifluoromethyl)phenyl)thiazol-4-yl)acetic acid]
1660 | O=C(O)Cc1coc(-c2cccc(C(F)(F)F)c2Cl)n1 [Example 22, 2-(2-(2-Chloro-3-(trifluoromethyl)phenyl)oxazol-4-yl)acetic acid]
175 | COc1ccc(-c2nc(CC(=O)O)co2)cc1C(F)(F)F [Example 23, 2-(2-(4-Methoxy-3-(trifluoromethyl)phenyl)oxazol-4-yl)acetic acid]
721 | O=C(O)Cc1coc(-c2ccc(F)c(C(F)(F)F)c2)n1 [Example 24, 2-(2-(4-Fluoro-3-(trifluoromethyl)phenyl)oxazol-4-yl)acetic acid]
285 | O=C(O)Cc1cc(-c2ccc(Cl)c(C(F)(F)F)c2)no1 [Example 25, 2-(3-(4-Chloro-3-(trifluoromethyl)phenyl)isoxazol-5-yl)acetic acid]
193 | COc1ccc(-c2nc(CC(=O)O)cs2)cc1C(F)(F)F [Example 26, 2-(2-(4-Methoxy-3-(trifluoromethyl)phenyl)thiazol-4-yl)acetic acid]
2380 | O=C(O)Cc1csc(-c2cccc(C(F)(F)F)c2Cl)n1 [Example 27, 2-(2-(2-Chloro-3-(trifluoromethyl)phenyl)thiazol-4-yl)acetic acid]
50 | O=C(O)Cc1csc(-c2cc(Br)cc(C(F)(F)F)c2)n1 [Example 28, 2-(2-(3-Bromo-5-(trifluoromethyl)phenyl)thiazol-4-yl)acetic acid]
263 | O=C(O)Cc1coc(-c2cc(F)c(F)c(C(F)(F)F)c2)n1 [Example 29, 2-(2-(3,4-Difluoro-5-(trifluoromethyl)phenyl)oxazol-4-yl)acetic acid]
86 | O=C(O)Cc1csc(-c2cc(F)c(F)c(C(F)(F)F)c2)n1 [Example 30, 2-(2-(3,4-Difluoro-5-(trifluoromethyl)phenyl)thiazol-4-yl)acetic acid]
134 | O=C(O)Cc1csc(-c2cc(C(F)F)cc(C(F)(F)F)c2)n1 [Example 32, 2-(2-(3-(Difluoromethyl)-5-(trifluoromethyl)phenyl)thiazol-4-yl)acetic acid]
1060 | O=C(O)c1nc(-c2cc(C(F)(F)F)cc(C(F)(F)F)c2)cs1 [Example 33, 4-(3,5-Bis-trifluoromethyl-phenyl)-thiazole-2-carboxylic acid]
98 | FC(F)(F)c1cc(-c2nc(Cc3nn[nH]n3)cs2)cc(C(F)(F)F)c1 [Example 34, 5-[2-(3,5-Bis-trifluoromethyl-phenyl)-thiazol-4-ylmethyl]-2H-tetrazole]
196 | FC(F)(F)c1cc(-c2nc(Cc3nn[nH]n3)cs2)ccc1Cl [Example 35, 5-[2-(4-Chloro-3-trifluoromethyl-phenyl)-thiazol-4-ylmethyl]-2H-tetrazole]
8820 | O=C(O)Cc1coc(-c2cc(C(F)(F)F)ccc2Cl)n1 [Example 36, 2-(2-(2-Chloro-5-(trifluoromethyl)phenyl)oxazol-4-yl)acetic acid]
> 10000 | O=C(O)Cc1coc(-c2cc(Br)cc(C(F)(F)F)c2)n1 [Example 37, 2-(2-(3-Bromo-5-(trifluoromethyl)phenyl)oxazol-4-yl)acetic acid]
